In ChEMBL document CHEMBL3272250, “Quinoline derivatives as antiallergy agents. 2. Fused-ring quinaldic acids” (1977) one finds ED50 and Ratio data, which are given here for 21 compounds.

Assay [1] relates to Rattus norvegicus. Put plainly: Antiallergic activity against anti-egg albumin homocytotropic antibody injected Sprague-Dawley rat assessed as inhibition of passive cutaneous anaphylaxis reaction administered iv at the time of egg albumin antigen challenge or ip 30 mins prior to egg albumin antigen challenge. It is filed as functional. The note with it: read-out: ID50 (the source's name).

The species named for assay [2] is Rattus norvegicus. As to the kind of experiment: Ratio of cromolyn sodium ID50 to compound ID50 for inhibition of passive cutaneous anaphylaxis reaction in Sprague-Dawley rat. It is filed as functional.

Take `COc1c2[nH]c(C(=O)O)cc(=O)c2cc2c(=O)cc(C(=O)O)[nH]c12`: the ED50 with Rattus norvegicus [1] amounted to 0.1 mg/kg. Regarding `O=C(O)c1cc(=O)c2c([nH]1)c1c(=O)cc(C(=O)O)[nH]c1c1c(=O)cc(C(=O)O)[nH]c21`, in the assay on Rattus norvegicus [1], the ED50 was 0.5 mg/kg. `O=C(O)c1cc(=O)c2cc3c(=O)cc(C(=O)O)[nH]c3c(Cl)c2[nH]1`: in the assay with Rattus norvegicus [1], the ED50 amounted to 0.05 mg/kg. With `O=C(O)c1cc(=O)c2c(ccc3c(=O)cc(C(=O)O)[nH]c32)[nH]1`, the ED50 in the assay with Rattus norvegicus [1] was 1 mg/kg.

With `O=C(O)c1cc(=O)c2cc3c(=O)cc(C(=O)O)[nH]c3c(F)c2[nH]1`, the ED50 in the assay on Rattus norvegicus [1] is 0.5 mg/kg. For `Cc1c(C(=O)O)[nH]c2ccc3[nH]c(C(=O)O)c(C)c(=O)c3c2c1=O`, the ED50 in the assay on Rattus norvegicus [1] was determined as 10 mg/kg. For `O=C(O)c1cc(=O)c2c(C(F)(F)F)c3c(=O)cc(C(=O)O)[nH]c3c(Cl)c2[nH]1`, the ED50 in the assay on Rattus norvegicus [1] was determined as 5 mg/kg.

As to `Cc1c2c(=O)cc(C(=O)[O-])[nH]c2c(Cl)c2[nH]c(C(=O)[O-])cc(=O)c12.[Na+].[Na+]`, the Ratio in the assay filed under Rattus norvegicus [2] was greater than 250. For the same compound, the ED50 in the assay on Rattus norvegicus [1] is 0.01 mg/kg. Consider `N#Cc1c2[nH]c(C(=O)O)cc(=O)c2cc2c(=O)cc(C(=O)O)[nH]c12`, for which the ED50 in the assay with Rattus norvegicus [1] worked out at 0.05 mg/kg. On the same count and under the same terms, the value for `O=C(O)c1cc(=O)c2c(ccc3[nH]c(C(=O)O)cc(=O)c32)[nH]1` was 2.5 mg/kg; that for `N#Cc1c2c(=O)cc(C(=O)O)[nH]c2c(Cl)c2[nH]c(C(=O)O)cc(=O)c12` was 0.05 mg/kg; that for `O=C(O)c1ccc2ccccc2n1` [QUINALDIC ACID] was 50 mg/kg. Consider `O=C(O)c1cc(=O)c2c(cc(C(=O)O)c3c(=O)cc(C(=O)O)[nH]c32)[nH]1`, for which the ED50 in the assay with Rattus norvegicus [1] was 10 mg/kg. On to `O=C([O-])c1cc(=O)c2c(OCC(O)COc3cccc4oc(C(=O)[O-])cc(=O)c34)cccc2o1.[Na+].[Na+]` [CROMOLYN SODIUM], for which, in the assay with Rattus norvegicus [1], the ED50 was 2.5 mg/kg.

For the compound `Cc1c(C(=O)[O-])[nH]c2c(C)c3[nH]c(C(=O)O)c(C)c(=O)c3cc2c1=O.[Na+]`, the ED50 in the assay with Rattus norvegicus [1] was found to be 5 mg/kg. Regarding `CCCCc1cc2c(=O)cc(C(=O)O)[nH]c2c2c(=O)cc(C(=O)O)[nH]c12` [BUFROLIN], in the assay filed under Rattus norvegicus [2], the Ratio was 500. The ED50 with Rattus norvegicus [1] is 0.005 mg/kg.

Turning to `O=C(O)c1cc(=O)c2ccc3c(ccc4c(=O)cc(C(=O)O)[nH]c43)c2[nH]1`, the Ratio in the assay filed under Rattus norvegicus [2] is on record as 500. Also, the ED50 in the assay on Rattus norvegicus [1] worked out at 0.005 mg/kg. As for `Cc1c2[nH]c(C(=O)[O-])cc(=O)c2cc2c(=O)cc(C(=O)[O-])[nH]c12.[Na+].[Na+]`, in the assay on Rattus norvegicus [1], the ED50 turned out to be 0.25 mg/kg.

For the compound `O=C(O)c1cc(=O)c2cc(Cl)c3c(ccc4c(=O)cc(C(=O)O)[nH]c43)c2[nH]1`, in the assay with Rattus norvegicus [1], the ED50 was 0.05 mg/kg. Take `O=C([O-])c1cc(=O)c2cc3c(=O)cc(C(=O)[O-])[nH]c3c(C(=O)O)c2[nH]1.[Na+].[Na+]`: the ED50 in the assay with Rattus norvegicus [1] came to 0.1 mg/kg. Still for that read-out and setting: the value for `CCCCCc1cc2c(=O)cc(C(=O)O)[nH]c2c2c(=O)cc(C(=O)O)[nH]c12` was 0.05 mg/kg.
